Article PMC9199881 (Clinical and Translational Science, 2022)

Key:
healthy volunteers = conditions: cited from earlier work
healthy subjects [1] = conditions: 100 mg twice daily (b.i.d.); cited from earlier work
healthy subjects [2] = test: Safety assessment; type: in vivo, human; conditions: Part B; 400 mg alone
healthy subjects [3] = test: Concentration-QTc; type: in vivo, human; conditions: Part B; 400 mg alone
[4] = Plasma pharmacokinetics, Part B
[5] = human, in vivo, 400 mg, Mean (SD), 400 mg single dose alone
[6] = human, in vivo, 400 mg, Median (range), 400 mg single dose alone

C=CC(=O)N1CCC([C@@H]2CCNc3c(C(N)=O)c(-c4ccc(Oc5ccccc5)cc4)nn32)CC1 [zanubrutinib]
prolongation of the QTc interval or clinically relevant ECG effects (healthy volunteers): no prolongation of the QTc interval or clinically relevant ECG effects

C=CC(=O)N1CCC(CNc2ncnc(N)c2-c2ccc(Oc3ccccc3)cc2)CC1 [evobrutinib]
prolongation of the QTc interval or clinically relevant ECG effects (healthy volunteers): no prolongation of the QTc interval or clinically relevant ECG effects

CC(C)c1nc(CN(C)C(=O)N[C@H](C(=O)N[C@@H](Cc2ccccc2)C[C@H](O)[C@H](Cc2ccccc2)NC(=O)OCc2cncs2)C(C)C)cs1 [ritonavir]
effect on QT (healthy subjects [1]): did not alter QT

COc1c(N2C[C@@H]3CCCN[C@@H]3C2)c(F)cc2c(=O)c(C(=O)O)cn(C3CC3)c12 [Moxifloxacin, moxifloxacin, reference compound]
Treatment-related TEAE: Abdominal pain, n (%) (healthy subjects [2]): 1 (2.8) n (%)
Treatment-related TEAE: Diarrhea, n (%) (healthy subjects [2]): 1 (2.8) n (%)
Treatment-related TEAE: Dizziness, n (%) (healthy subjects [2]): 1 (2.8) n (%)
Treatment-related TEAE: Dysgeusia, n (%) (healthy subjects [2]): 0 n (%)
Treatment-related TEAE: Frequent bowel movements, n (%) (healthy subjects [2]): 0 n (%)
Treatment-related TEAE: Gastrointestinal disorders, n (%) (healthy subjects [2]): 1 (2.8) n (%)
Treatment-related TEAE: Headache, n (%) (healthy subjects [2]): 0 n (%)
Treatment-related TEAE: Herpex simplex, n (%) (healthy subjects [2]): 0 n (%)
Treatment-related TEAE: Infections and infestations, n (%) (healthy subjects [2]): 1 (2.8) n (%)
Treatment-related TEAE: Lethargy, n (%) (healthy subjects [2]): 1 (2.8) n (%)
Treatment-related TEAE: Nausea, n (%) (healthy subjects [2]): 1 (2.8) n (%)
Treatment-related TEAE: Nervous system disorders, n (%) (healthy subjects [2]): 2 (5.6) n (%)
Treatment-related TEAE: Somnolence, n (%) (healthy subjects [2]): 0 n (%)
Treatment-related TEAE: Subjects with ≥1 TEAE, n (%) (healthy subjects [2]): 3 (8.3) n (%)
Treatment-related TEAE: Vomiting, n (%) (healthy subjects [2]): 1 (2.8) n (%)
incidence of treatment-related TEAEs (healthy subjects [2]): 8.3%
participants with diarrhea (healthy subjects [2]): 2.8%
predicted ΔΔQTcF at the observed geometric mean Cmax (healthy subjects [3]): 14.7 ms
Tmax, Median (range) ([4]; 400 mg single dose alone): 2.1 (0.6–10) h
AUC(0-t) ([4]; human, in vivo, 400 mg, AUC0–last, Mean (SD), 400 mg single dose alone): 22700 ng·h/mL
AUC(0-inf) ([4]; human, in vivo, 400 mg, AUC0–∞, Mean (SD), 400 mg single dose alone): 27400 ng·h/mL
Cmax [4, 5]: 2360 ng/mL
Cmax [4, 6]: 2310 ng/mL
Cmax ([4]; human, in vivo, 400 mg, range, single moxifloxacin 400 mg dose): 1230 to 4080 ng/mL
Tmax [4, 5]: 2.2 h
Tmax [4, 6]: ~2 h
geometric mean peak concentration ([4]; moxifloxacin 400 mg): 2260 ng/mL

CC#CC(=O)N1CCC[C@H]1c1nc(-c2ccc(C(=O)Nc3ccccn3)cc2)c2c(N)nccn12 [acalabrutinib]
prolongation of the QTc interval or clinically relevant ECG effects (healthy volunteers): no prolongation of the QTc interval or clinically relevant ECG effects
